Earlier results in US20100204282A1, “Reverse indoles as 5-lipoxygenase-activating protein (FLAP) inhibitors” (priority 2007, published 2010).

What was measured:
[1] = for efficacy in asthma: in vivo
[2] = tested on: porcine carotid injury model
[3] = tested on: rat photochemical model of endothelial injury
[4] = tested on: mouse model of renal ischemia

O=C(O)[C@@H](c1ccc(OCc2ccc3ccccc3n2)cc1)C1CCCC1 [BAY X1005, (R)-2-[4-(quinolin-2-yl-methoxy)phenyl]-2-cyclopentyl acetic acid]
efficacy in asthma [1]: have efficacy in asthma

CC(C)(C)Sc1c(CC(C)(C)C(=O)O)n(Cc2ccc(Cl)cc2)c2ccc(OCc3ccc4ccccc4n3)cc12 [MK-0591, 2-((5-((quinolin-2-yl)methoxy)-1-(4-chlorobenzyl)-3-(tert-butylthio)-1H-indol-2-yl)methyl)-2-methylpropanoic acid]
efficacy in asthma [1]: have efficacy in asthma

CC(C)c1ccc2c(c1)c(SC(C)(C)C)c(CC(C)(C)C(=O)O)n2Cc1ccc(Cl)cc1 [MK-886, 2-((1-(4-chlorobenzyl)-3-(tert-butylthio)-5-isopropyl-1H-indol-2-yl)methyl)-2-methylpropanoic acid]
efficacy in asthma [1]: have efficacy in asthma
postangioplasty vasoconstrictive response [2]: decreases the postangioplasty vasoconstrictive response
femoral artery intimal hyperplasia [3]: suppresses femoral artery intimal hyperplasia

CC(C)(O)c1ccccc1CCC(SCC1(CC(=O)O)CC1)c1cccc(C=Cc2ccc3ccc(Cl)cc3n2)c1 (stereo not drawn) [montelukast, [1-[[1-[3-[2-[(7-chloro-2-quinolyl)]vinyl]phenyl]-3-[2-(1-hydroxy-1-methyl-ethyl)phenyl]-propyl]sulfanylmethyl]cyclopropyl]acetic acid]
efficacy in asthma and allergic rhinitis ([1]; CysLT1 receptor antagonist): efficacious in asthma and allergic rhinitis

COc1cc(C(=O)NS(=O)(=O)c2ccccc2C)ccc1Cc1cn(C)c2ccc(NC(=O)OC3CCCC3)cc12 [zafirlukast]
efficacy in asthma [1]: efficacious in asthma

CC(c1cc2ccccc2s1)N(O)C(N)=O (stereo not drawn) [zileuton]
efficacy in asthma [1]: has efficacy in asthma
renal ischemia [4]: reduce renal ischemia
